Test results from patent publication US9416115B2, “Fused heterocyclic compounds as ion channel modulators” (Gilead Sciences, Inc., priority 2013, dated 2016).

Legend:
[1] = target: wild-type human cardiac sodium channel, hNav1.5 (Homo sapiens, UniProt Q14524); assay: Late INa screening assay (QPatch whole cell patch clamp, Tefluthrin-induced late current); assay type: cell-based; conditions: HEK293 hNav1.5, percent block of late INa
Procedure: The cardiac late sodium current (Late INa) and peak sodium current (Peak INa) assays are performed on an automated electrophysiology platform, QPatch 16X or QPatch HT (Sophion Bioscience, Copenhagen, Denmark) using the whole cell patch clamp technique to measure currents through the cell membrane. The assay uses an HEK293 (human embryonic kidney) cell line heterologously expressing the wild-type human cardiac sodium channel, hNav1.5, purchased from Millipore (Billerica, Mass.). No beta subunits were coexpressed with the Na channel alpha subunit. Cells are maintained with standard tissue culture procedures and stable channel expression is maintained with 400 μg/mL Geneticin in the culture medium. Experiments are carried out at 23-25° C.
For both the Late INa and Peak INa assays, series resistance compensation is set to 100% and series resistance and whole-cell compensation are performed automatically. Currents are digitized at 25 kHz and low-pass filtered at 5 kHz and stored in the Sophion Bioscience Oracle database (Sophion Bioscience, Copenhagen, Denmark). Analysis is performed using QPatch Assay software and data are compiled in Excel 2010 (Microsoft, Seattle, Wash., U.S.A.).
Compound stocks are routinely made by the Gilead Sample Bank in vials to 10 mM in dimethyl sulfoxide (DMSO). In some cases, when compounds are not soluble in DMSO, they are made in 100% ethanol. Stocks are sonicated as necessary. The extracellular solution for screening Late INa is composed of: 140 mM NaCl, 4 mM KCl, 1.8 mM CaCl2, 1 mM MgCl2, 10 mM HEPES and 10 mM Dextrose with pH adjusted to 7.35 using NaOH. The intracellular solution contains: 105 mM CsF, 20 mM CsCl, 10NaF, 2 mM EGTA, 10 mM HEPES and 10 mM Dextrose with pH adjusted to 7.35 with CsOH. Compounds are diluted in extracellular solution using a MicroLab Nimbus (Hamilton Robotics, Reno, Nev.) to between 0.3 and 3 μM in glass vials and transferred to glass well plates before robotic addition to the cells. The 0 mM Na extracellular solution (0Na-ECF) used at the end of each experiment for the Late INa and Peak INa assays to measure baseline current contains: 140 Choline-Cl; 4 mM KCl, 1.8 mM CaCl2; 1 mM MgCl2; 10 mM HEPES and 10 mM Dextrose with pH was adjusted to 7.35 with CsOH.
For the Late INa assay, sodium channels are activated every 10 seconds (0.1 Hz) by depolarizing the cell membrane to −20 mV for 250 milliseconds (ms) from a holding potential of −120 mV.
Compounds were tested to determine their activity in blocking the late sodium current. Late INa was generated by adding 10 μM Tefluthrin (pyrethroid) to the extracellular solution. For the purposes of the screening, Late INa is defined as the mean current between […] during the voltage step to −20 mV. After establishing the whole cell recording configuration, Late INa activator is added to each well 4 times over a 15 minute period so that the late component of the Na current reaches a stable value. Compounds were then added (typically at 0.3 or 1 μM), in the presence of the Late Na^+ activator, with 3 additions over the course of 5 minutes. Measurements were made at the end of exposure to the third compound addition and values were normalized to the current level when all Na^+ was removed from the extracellular solution after two additions of 0Na-ECF.
Results are reported as percent block of late INa and results were analyzed by incorporating rundown correction for the Late INa.

hNav1.1 (SCN1A) = hNav1.1 (SCN1A) (Homo sapiens, UniProt P35498); assay: Use-dependent inhibition of the CNS Nav1.1 sodium channel; assay type: cell-based; conditions: use-dependent block, 25 Hz, pulse 20, read-out: Nav1.1 UDB 25 Hz 10 uM
Procedure: HEK-293 cells stably expressing wild-type (WT) hNav1.1 (SCN1A, NCBI# AB09354) were obtained from Millipore (Cat. # CYL3009) were used to record INa. Cells are maintained with standard tissue culture procedures and stable channel expression is maintained with 400 ug/mL G418 in the culture medium. Unless otherwise noted, all reagents are purchased from Sigma-Aldrich (St Louis, Mo., U.S.A.).
Assays measuring Use-Dependent Block (UDB) of Nav1.2 are performed on an automated electrophysiology platform, QPatch 16X or QPatch HT (Sophion Bioscience, Copenhagen, Denmark), using the whole cell patch clamp technique to measure currents through the cell membrane. Series resistance compensation is set to 100% and series resistance and whole-cell compensation are performed automatically. Currents stored in the Sophion Bioscience Oracle database (Sophion Bioscience, Copenhagen, Denmark). Analysis is performed using QPatch Assay software and data are compiled in Excel 2010 (Microsoft, Seattle, Wash., U.S.A.).
The internal (pipette) solution consists of (in mM) 105 CsF, 10 NaF, 20 CsCl, 2 EGTA, 10 HEPES, 10 Dextrose with a pH of 7.35 and osmolarity of 300 mOsmol/kg. The external (bath) solution contains in (mM): 145 NaCl, 4 KCl, 1.8 CaCl2, 1 MgCl2, 10 dextrose, 10 HEPES, with a pH of 7.35 and osmolarity of 310 mOsmol/kg. Experiments are carried out at 23-25° C.
Compound stocks are routinely made by the Gilead Sample Bank in vials to 10 mM in dimethyl sulfoxide (DMSO). In some cases, when compounds are not soluble in DMSO, they are made in 100% ethanol. Stocks are sonicated as necessary. […]
Cells are allowed to stabilize for 10 min after establishment of the whole-cell configuration before current is measured. The test compound is applied 2 times at 60 second intervals. After the second compound addition, a 200 second wait period was imposed to allow for equilibration. Leak currents are subtracted by using an online P/4 procedure and all currents are low-pass Bessel filtered at 5 kHz and digitized at […].
Use-dependent block of Nav1.2 peak current is measured during pulse number 20 of a voltage pulse train (0 mV, 20 ms, 20 pulses, 25 Hz) from a holding potential of −120 mV. Currents are normalized to the peak current recorded in response to the first pulse in each frequency train. The voltage protocol for UDB was performed in the absence and presence of compound and percentage inhibition was calculated with respect to the compound free condition. Results are presented as mean percentage inhibition and data analysis is performed using QPatch Assay Software 4.0, and Excel 2002 (Microsoft, Seattle, Wash., U.S.A.).

wild-type human cardiac sodium channel, hNav1.5, sequence (Q14524 whole entry): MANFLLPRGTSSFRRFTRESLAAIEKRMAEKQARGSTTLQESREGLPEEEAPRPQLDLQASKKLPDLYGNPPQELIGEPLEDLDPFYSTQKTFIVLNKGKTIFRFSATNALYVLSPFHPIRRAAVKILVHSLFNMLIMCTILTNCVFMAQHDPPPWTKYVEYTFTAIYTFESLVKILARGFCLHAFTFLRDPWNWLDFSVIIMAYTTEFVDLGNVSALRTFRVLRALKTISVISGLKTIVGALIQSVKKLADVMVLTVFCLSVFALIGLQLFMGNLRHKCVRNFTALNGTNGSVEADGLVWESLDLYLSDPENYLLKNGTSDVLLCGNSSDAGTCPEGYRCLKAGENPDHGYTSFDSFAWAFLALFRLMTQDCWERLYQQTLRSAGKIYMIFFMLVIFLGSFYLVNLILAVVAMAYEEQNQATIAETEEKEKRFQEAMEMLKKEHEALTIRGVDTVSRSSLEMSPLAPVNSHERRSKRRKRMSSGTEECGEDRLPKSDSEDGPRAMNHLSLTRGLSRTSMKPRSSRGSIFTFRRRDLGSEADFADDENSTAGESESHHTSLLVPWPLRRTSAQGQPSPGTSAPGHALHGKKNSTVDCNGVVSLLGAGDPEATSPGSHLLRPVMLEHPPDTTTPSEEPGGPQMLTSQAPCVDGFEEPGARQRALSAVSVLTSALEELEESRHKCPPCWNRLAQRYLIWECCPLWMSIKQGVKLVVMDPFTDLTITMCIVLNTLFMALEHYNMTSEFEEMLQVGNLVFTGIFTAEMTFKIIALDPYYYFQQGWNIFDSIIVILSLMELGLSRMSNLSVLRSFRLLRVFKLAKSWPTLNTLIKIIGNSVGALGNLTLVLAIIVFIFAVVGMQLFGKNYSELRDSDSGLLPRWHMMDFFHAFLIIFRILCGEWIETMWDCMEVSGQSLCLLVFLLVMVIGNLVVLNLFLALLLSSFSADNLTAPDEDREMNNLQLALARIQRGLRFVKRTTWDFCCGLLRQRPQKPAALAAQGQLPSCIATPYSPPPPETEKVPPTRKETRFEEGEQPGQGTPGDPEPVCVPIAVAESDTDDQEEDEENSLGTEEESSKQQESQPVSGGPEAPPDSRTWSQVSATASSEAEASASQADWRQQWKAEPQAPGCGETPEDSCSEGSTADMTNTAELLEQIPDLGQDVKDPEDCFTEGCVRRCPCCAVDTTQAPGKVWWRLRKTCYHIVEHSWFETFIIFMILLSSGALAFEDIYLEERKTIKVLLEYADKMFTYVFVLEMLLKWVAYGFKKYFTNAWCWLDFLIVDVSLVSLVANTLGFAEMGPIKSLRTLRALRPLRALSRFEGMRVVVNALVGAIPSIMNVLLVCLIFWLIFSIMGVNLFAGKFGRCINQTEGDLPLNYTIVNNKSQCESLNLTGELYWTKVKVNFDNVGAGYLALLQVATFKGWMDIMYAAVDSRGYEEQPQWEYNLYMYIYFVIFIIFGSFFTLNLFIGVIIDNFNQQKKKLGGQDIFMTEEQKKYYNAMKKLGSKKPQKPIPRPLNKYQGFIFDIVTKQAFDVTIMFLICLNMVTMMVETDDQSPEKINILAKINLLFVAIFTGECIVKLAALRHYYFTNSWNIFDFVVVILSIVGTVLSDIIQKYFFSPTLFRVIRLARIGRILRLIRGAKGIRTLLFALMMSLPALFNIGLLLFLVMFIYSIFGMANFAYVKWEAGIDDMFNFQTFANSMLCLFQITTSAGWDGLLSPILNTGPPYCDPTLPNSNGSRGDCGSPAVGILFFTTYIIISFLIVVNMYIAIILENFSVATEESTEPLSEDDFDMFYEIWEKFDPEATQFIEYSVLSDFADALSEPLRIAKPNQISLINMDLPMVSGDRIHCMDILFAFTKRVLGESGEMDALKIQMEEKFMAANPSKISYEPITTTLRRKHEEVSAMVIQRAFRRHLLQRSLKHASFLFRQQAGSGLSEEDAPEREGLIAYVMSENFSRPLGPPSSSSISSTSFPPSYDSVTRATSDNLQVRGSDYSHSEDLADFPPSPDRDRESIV

Row | Structure (SMILES) | inhibition at 0.3 µM [1] [%] | inhibition at 1 µM [1] [%] | inhibition at 10 µM (hNav1.1 (SCN1A)) [%]
1 | FC(F)(F)Oc1ccc(-c2ccc3onc(OCc4ncccn4)c3c2)cc1 [Example 1, 3-(pyrimidin-2-ylmethoxy)-5-(4-(trifluoromethoxy)phenyl)benzo[d]isoxazole] | 55 | 66.2 | 5.5
2 | Cc1cc(OC(F)(F)F)ccc1-c1ccc2onc(OCc3ncccn3)c2c1 [Example 3, 5-(2-methyl-4-(trifluoromethoxy)phenyl)-3-(pyrimidin-2-ylmethoxy)benzo[d]isoxazole] |  | 52.6 | < 5
3 | COc1cc(OC(F)(F)F)ccc1-c1ccc2onc(OCc3ncccn3)c2c1 [Example 4, 5-(2-methoxy-4-(trifluoromethoxy)phenyl)-3-(pyrimidin-2-ylmethoxy)benzo[d]isoxazole] | 29.7 | 62.9 | 14.2
4 | Cc1ccnc(COc2noc3ccc(-c4ccc(OC(F)(F)F)cc4)cc23)n1 [Example 5, 3-((4-methylpyrimidin-2-yl)methoxy)-5-(4-(trifluoromethoxy)phenyl)benzo[d]isoxazole] | 38.2 | 54.5 | < 5
5 | Fc1cc(C(F)(F)F)ccc1-c1ccc2onc(OCc3ncccn3)c2c1 [Example 6, 5-(2-fluoro-4-(trifluoromethyl)phenyl)-3-(pyrimidin-2-ylmethoxy)benzo[d]isoxazole] |  | 51.1 | < 5
6 | Cc1cc(-c2ccc3onc(OCc4ncccn4)c3c2)ccc1OC(F)(F)F [Example 7, 5-(3-methyl-4-(trifluoromethoxy)phenyl)-3-(pyrimidin-2-ylmethoxy)benzo[d]isoxazole] |  | 47.5 | < 5
7 | Fc1cc(-c2ccc3onc(OCc4ncccn4)c3c2)ccc1Cl [Example 8, 5-(4-chloro-3-fluorophenyl)-3-(pyrimidin-2-ylmethoxy)benzo[d]isoxazole] |  | 52.6 | < 5
8 | FC(F)(F)c1ccc(-c2ccc3onc(OCc4ncccn4)c3c2)cc1 [Example 9, 3-(pyrimidin-2-ylmethoxy)-5-(4-(trifluoromethyl)phenyl)benzo[d]isoxazole] | 36.4 | 58.9 | < 5
9 | FC(F)(F)Oc1cccc(-c2ccc3onc(OCc4ncccn4)c3c2)c1 [Example 10, 3-(pyrimidin-2-ylmethoxy)-5-(3-(trifluoromethoxy)phenyl)benzo[d]isoxazole] |  | 41 | < 5
10 | COc1cc2onc(OCc3ncccn3)c2cc1-c1ccc(Cl)c(F)c1 [Example 13, 5-(4-chloro-3-fluorophenyl)-6-methoxy-3-(pyrimidin-2-ylmethoxy)benzo[d]isoxazole] |  | 35.1 | 30.8
11 | COc1cc2onc(OCc3ncccn3)c2cc1-c1ccc(OC(F)(F)F)c(C)c1 [Example 14, 6-methoxy-5-(3-methyl-4-(trifluoromethoxy)phenyl)-3-(pyrimidin-2-ylmethoxy)benzo[d]isoxazole] |  | 46.7 | 34.5
12 | COc1cc2onc(OCc3ncccn3)c2cc1-c1ccc(F)c(Cl)c1 [Example 15, 5-(3-chloro-4-fluorophenyl)-6-methoxy-3-(pyrimidin-2-ylmethoxy)benzo[d]isoxazole] |  | 32.2 | < 5
13 | Cc1cc(-c2ccc(OC(F)(F)F)cc2)cc2c(OCc3ncccn3)noc12 [Example 16, 7-methyl-3-(pyrimidin-2-ylmethoxy)-5-(4-(trifluoromethoxy)phenyl)benzo[d]isoxazole] |  | 54.2 | 27.3
14 | COc1cc(-c2ccc(OC(F)(F)F)cc2)cc2c(OCc3ncccn3)noc12 [Example 22, 7-methoxy-3-(pyrimidin-2-ylmethoxy)-5-(4-(trifluoromethoxy)phenyl)benzo[d]isoxazole] | 17.7 | 55.9 | 28.1
15 | Cc1cc2onc(OCc3ncccn3)c2cc1-c1ccc(C(F)(F)F)cc1F [Example 28, 5-(2-fluoro-4-(trifluoromethyl)phenyl)-6-methyl-3-(pyrimidin-2-ylmethoxy)benzo[d]isoxazole] | 26.7 | 54.4 | < 5
16 | FC(F)(F)Oc1ccc(-c2ccc3onc(OCC4CCO4)c3c2)cc1 (stereo not drawn) [Example 42, 3-(oxetan-2-ylmethoxy)-5-(4-(trifluoromethoxy)phenyl)benzo[d]isoxazole] | 17.5 | 57.3 | < 5
17 | CCn1ccnc1COc1noc2ccc(-c3ccc(OC(F)(F)F)cc3)cc12 [Example 47, 3-((1-ethyl-1H-imidazol-2-yl)methoxy)-5-(4-(trifluoromethoxy)phenyl)benzo[d]isoxazole] | 20 | 60.2 | 55.5
18 | FC(F)(F)Oc1ccc(-c2ccc3onc(OCc4ncco4)c3c2)cc1 [Example 53, 3-(oxazol-2-ylmethoxy)-5-(4-(trifluoromethoxy)phenyl)benzo[d]isoxazole] | 31.1 | 57 | < 5
19 | FC(F)(F)Oc1ccc(-c2ccc3onc(OCCn4cncn4)c3c2)cc1 [Example 58, 3-(2-(1H-1,2,4-triazol-1-yl)ethoxy)-5-(4-(trifluoromethoxy)phenyl)benzo[d]isoxazole] | 36.7 | 55 | 43.5
20 | O=C1CCCN1CCOc1noc2ccc(-c3ccc(OC(F)(F)F)cc3)cc12 [Example 59, 1-(2-((5-(4-(trifluoromethoxy)phenyl)benzo[d]isoxazol-3-yl)oxy)ethyl)pyrrolidin-2-one] | 43.7 | 60.4 | 46.9
